Assay type in all cases: functional
Assay [1] has as its system Escherichia coli. The experiment in a line: Antibacterial activity against Escherichia coli ATCC 25922.
The subject of assay [2] is Pseudomonas aeruginosa. As to the kind of experiment: Antibacterial activity against Pseudomonas aeruginosa ATCC 85327.
Assay [3] deals with Staphylococcus aureus. As to the kind of experiment: Antibacterial activity against Staphylococcus aureus ATCC 25923 at 0.4 mM. Conditions: read-out: IZ.

As for `C=C/C(C)=C/C[C@H]1C(=C)C[C@H]2OC(=O)[C@@]3(C)CCC[C@@]1(C)[C@@H]23`, the “inhibition zone (IZ)” value in assay [1] is 13 mm; in assay [2], 12 mm. In addition, the zone of inhibition at 400 µM in assay [3] worked out at 20 mm.
